This is an account of results in patent US20260234173A1, “STRUCTURED MOLECULAR VECTORS FOR ANTI-INFLAMMATORY COMPOUNDS AND USES THEREOF” (Universite Claude Bernard Lyon 1, priority 2019, published 2026).

Series [1] concerns hippocampal LTP in rats subjected to Pilo-SE. As to the kind of experiment: Hippocampal LTP in slices from Pilo-SE rats treated in vivo (i.p. or per os). More on the design: species or system rat. As for the experimental part: (§1) In this experiment we used male Sprague-Dawley rats (ENVIGO, Netherlands). Pups were received at 14 day-old (postnatal day 14 (P14)) with their foster mother, and were maintained in groups of 10 in plastic cages (405 mm×255 mm×197 mm) with free access to food and water. All animal procedures are in accordance with the guidelines of the Animal Care and Use Committee of the University Claude Bernard Lyon 1.
(§2) All injected solutions were prepared in sterile saline (0.9% w/v). At weaning (postnatal day 20 (P20)), Sprague-Dawley male rat pups were first injected i.p. with lithium chloride (127 mg/Kg; Sigma-Aldrich), to decrease the dose of pilocarpine needed to trigger Status Epilepticus (SE). Scopolamine methylnitrate (1 mg/Kg; Sigma-Aldrich) was injected s.c. 18 h later, to alleviate peripheral cholinergic adverse side effects. Pilocarpine hydrochloride (25 mg/Kg; Sigma-Aldrich) was injected i.p. 30 min later, to induce SE. […] The rats were placed on a heated pad, under continuous observation, until they recovered from sedation. Following recovery, the rats were returned to the nursing mother until P23. Control rats only received saline injections. All rats were then housed in groups of 10 and weighed daily, during the 5 following days, to control for food intake, and then twice weekly until the end of experiment (three weeks post SE).
(§3) At P28-38, Sprague-Dawley rats were anesthetized with isoflurane, the forebrain was removed and placed in ice cold standard artificial cerebrospinal fluid (ACSF), consisting of (in mM): 124 NaCl, 5 KCl, 1.25 Na2HPO4, 2 MgSO4, 2 CaCl2), 26 NaHCO3, supplemented with 10 D-glucose, and bubbled with 95% O2 and 5% CO2. Hippocampal transverse slices were cut into 350 μm thick sections, using a vibratome (Leica VT1000S), and incubated in ACSF at room temperature for at least 1 h, before the transfer to the recording chamber. The ACSF used for perfusion was supplemented with picrotoxin (100 μM; Sigma-Aldrich), to block GABA-A receptors and therefore to facilitate the induction of NMDA receptors-dependent Long-Term Potentiation (LTP). CA1 pyramidal cells were visualized with a Zeiss Axioskop 2, equipped with a X40 objective, using infrared video microscopy and differential interference contrast optics. Whole-cell recordings from pyramidal neurons in the CA1 layer were obtained with patch electrodes, which were filled with a solution containing (in mM): 120 potassium gluconate, 20 KCl, 0.2 EGTA, 2 MgCl2, 10 HEPES, 4 Na2ATP, 0.3 Tris-GTP and 14 mM phosphocreatine (pH 7.3, adjusted with KOH). Drugs were applied in the bath of the hippocampal slices. Electrode resistances ranged from 3-5 MΩ. Series resistance was continually monitored, and experiments were discarded if it changed by >20%.
Capillary glass pipettes filled with ACSF and connected to an Iso-Flex stimulus isolation unit (A.M.P.I.) were placed in stratum radiatum, to evoke excitatory postsynaptic potentials (EPSPs) in CA1 pyramidal neurons. Cells were held at −70 mV to record EPSPs, and the stimulation strength was set to evoke EPSPs between 5-8 mV. LTP was induced by the theta burst pairing (TBP) protocol, which consisted of EPSPs paired with single back-propagating action potentials (b-APs), timed so that the b-AP (~15 ms delay) occurred at the peak of the EPSPs, as measured in the soma. A single burst contained five pairs delivered at 100 Hz and ten bursts were delivered at 5 Hz per sweep. Three sweeps were delivered at 10 s intervals for a total of 30 bursts (150 b-AP-EPSP pairs). The b-APs were elicited by direct somatic current injection (1 ms, 1-2 nA). This induction protocol was always applied within 20 min of achieving whole-cell configuration, to avoid “wash-out” of LTP.

Series [2] concerns NR8383 cells. The settings on record: LPS 100 ng/mL; compound 10, 100, 500, 1,000 nM within <2 min after LPS; 5 hours. As for the experimental part:
NR8383 cells were seeded at 53,000 cells/cm^2 in T75 flasks, the medium consisted in Ham's F12K medium completed with 1% pen/strep, and 15% fetal bovine serum. When they reached confluence, they were treated with LPS (Sigma, ref 055: B55) at the concentration of 100 ng/mL, and, within less than 2 min after, with one of the following condition: DECA-EA-Pn at 10, 100, 500 or 1,000 nM, or EPA-EA-Pn at 10, 100, 500 or 1,000 ng/mL. Cells were harvested 5 hours later, and the level of IL-6 mRNA was measured by RT-qPCR as in B.2.1.4, with primers listed in table 1.

Series [3] relates to epileptic rats (post Pilo-SE). As to the kind of experiment: Morris water maze (MWM) spatial learning in epileptic rats. It is filed as in vivo, rat. The settings on record: epileptic rats injected during the first week post-SE, tested 5 weeks post-SE, versus saline. The procedure: All injected solutions were prepared in sterile saline (0.9% w/v). At weaning (postnatal day 20 (P20)), Sprague-Dawley male rat pups were first injected i.p. with lithium chloride (127 mg/Kg; Sigma-Aldrich), to decrease the dose of pilocarpine needed to trigger Status Epilepticus (SE). Scopolamine methylnitrate (1 mg/Kg; Sigma-Aldrich) was injected s.c. 18 h later, to alleviate peripheral cholinergic adverse side effects. Pilocarpine hydrochloride (25 mg/Kg; Sigma-Aldrich) was injected i.p. 30 min later, to induce SE. After 30 min of continuous behavioral SE, diazepam (Valium®, Roche) was injected i.p. at 10 mg/Kg, to promote survival and initiate cessation of behavioral seizures, that completely stopped after a second s.c. injection of diazepam, given 90 min later at the dose of 5 mg/Kg. The rats were placed on a heated pad, under continuous observation, until they recovered from sedation. Following recovery, the rats were returned to the nursing mother until P23. Control rats only received saline injections. […]
Spatial learning ability was measured at 5 weeks post-SE by the Morris water maze (MWM). […]
The statistical analyses were performed using SigmaPlot software version 12. […] For MWM test, data were analyzed by two-way repeated measures ANOVA followed by Fisher LSD post hoc tests to compare differences between groups at several time points.

Series [4] deals with Pilo-SE-induced inflammation in the hippocampus. As to the kind of experiment: Resolution of inflammation in hippocampus following pilocarpine-induced status epilepticus (Pilo-SE). The settings on record: 2 mg/kg i.p. after 2 h of SE; hippocampus 9 h post-SE; 42-day-old rats. In kind it is in vivo, rat. The procedure: Male Sprague-Dawley rats (Envigo, The Netherlands) were subjected to Pilo-SE at 42 days of age (185 g). SE was triggered by pilocarpine hydrochlorate (350 mg/kg, i.p.), 30 min after the administration of scopolamine methylnitrate (1 mg/kg, s.c.), used to reduce peripheral side effects of pilocarpine. After 2 h of continuous SE, rats were administered with diazepam (10 mg/kg, i.p.) to stop SE, and then immediately treated with SYN (2 mg/kg, i.p.), SYN-Pn (2 mg/kg, i.p.) in 300 μL of NaCl. Non-treated rats subjected to Pilo-SE were injected with 300 μL of NaCl (i.p.) instead of SYN or SYN-Pn. All rats received a second administration of diazepam (5 mg/kg, s.c.), 1 h after the first one, and sacrificed 9 h post-SE. The brains were collected, the hippocampus microdissected on ice, the RNA extracted and RT-qPCR performed as described above using the primer pairs shown in Table 1. The time at which rats were sacrificed was chosen based on our preliminary experiments that allowed us to determine that the peak of brain inflammation was observed 7-12 hours after the onset of SE.

Series [5] concerns LPS-induced neuroinflammation (hippocampus and neocortex). Kind of series: LPS-induced neuroinflammation in vivo in rats (RT-qPCR, Neuroinflammation Index). More on the design: species or system rat. The settings on record: 6 h post-LPS. In general terms: Real-time PCR tracks product formation cycle by cycle.
Series [6] has as its system CA1 pyramidal neurons in hippocampal slices from rats subjected to Pilo-SE. As to the kind of experiment: Hippocampal LTP in slices from Pilo-SE rats, compound perfused in the bath (ex vivo). It is filed as cell-based, rat. The settings on record: slices 1-2 weeks post Pilo-SE. As for the experimental part: as §1, §2, §3
Capillary glass pipettes filled with ACSF and connected to an Iso-Flex stimulus isolation unit (A.M.P.I.) were placed in stratum radiatum, to evoke excitatory postsynaptic potentials (EPSPs) in CA1 pyramidal neurons. Cells were held at −70 mV to record EPSPs, and the stimulation strength was set to evoke EPSPs between 5-8 mV. LTP was induced by the theta burst pairing (TBP) protocol, which consisted of EPSPs paired with single back-propagating action potentials (b-APs), timed so that the b-AP (~15 ms delay) occurred at the peak of the EPSPs, as measured in the soma. A single burst contained five pairs delivered at 100 Hz and ten bursts were delivered at 5 Hz per sweep. Three sweeps were delivered at 10 s intervals for a total of 30 bursts (150 b-AP-EPSP pairs). […]

A short description of series [7]: Hydrosolubility compared with synaptamide. It is filed as physicochemical.
Series [8] can be described thus: Metabolic fate of SSL-X1 in the digestive tract of rats after per os administration. In kind it is in vivo. The settings on record: 227 μg lipid phosphorus per os, sacrificed 5, 8 and 36 hours after administration.
Series [9] concerns SE-induced neuroinflammation (hippocampus and ventral limbic region). Kind of series: Neuroinflammatory response induced by status epilepticus in rats, per os SSL-X1. It is filed as in vivo, rat. The settings on record: 100 mg/Kg per os 1 h after onset of SE; hippocampus and ventral limbic region 24 h after SE; 21-day-old rats. From the text: In these experiments, 21-day-old Sprague Dawley rats (ENVIGO, The NETHERLAND) were subjected to pilocarpine-induced status epilepticus (SE) as described below in details (§ B.3). Three groups of rats were constituted: (i) CTRL-NaCl, i.e. control rats that just received NaCl each time a treatment was given in the other groups of rats; (ii) SE-NaCl, i.e. rats that were subjected to SE and that received NaCl per os instead of SSL-X1; (iii) SE-SSL-X1, i.e. rats that were subjected to SE and that were administered with SSL-X1 vector (100 mg/Kg) per os 1 h after the onset of SE. The vectors were dissolved in 100 μL of NaCl. Due to their hydrophobic nature, the preparation was emulsified until complete dissolution of the lipid vector. Twenty-four hours later, rats were sacrificed using a lethal injection of pentobarbital (250 mg/Kg; i.p.) and brain tissues, i.e. the hippocampus (HI) and the ventral limbic region (VLR, which includes the amygdala, the piriform and the insular agranular cortices) were collected and processed as mentioned above (§ B.2.2). Analysis of the expression level of the key markers of neuroinflammation was performed by RT-qPCR as described above using the primer pairs shown in Table 1. […]

[10] abbreviates: 5 mg/kg i.p., 1 h after cessation of SE then daily.
[11] abbreviates: 2 mg/kg i.p., 1 h after cessation of SE then daily.

For “eicosapentaenoic acid ethanolamine phosphonate [EPA-EA-Pn]”, in [1] (setting [10]), the “LTP magnitude (EPSP amplitude, % of baseline)” value is 154.4±12.1%. In addition, in [2], the “induction of IL-6 mRNA levels” value is recorded as “significantly reduced”.

On to `CC/C=C\C/C=C\C/C=C\C/C=C\C/C=C\C/C=C\CCC(=O)NCCO` [synaptamide, N-Docosahexaenoylethanolamine, reference compound], for which the “spatial learning in MWM (latency to find the platform)” value in series [3] was “significantly increased spatial learning acquisition”. For the same compound, in [4], the “induction of IL1β mRNA in response to Pilo-SE” value is “reduced”. Besides, the “LPS-mediated induction of transcripts encoding neuroinflammatory markers” value in series [5] (2 mg/Kg synaptamide equivalent i.p. one minute after LPS 1 mg/Kg, 21-day-old rats) is listed as “partially prevent”. Also, the “reduction of the Neuroinflammatory Index measured both in the hippocampus and the neocortex” value in series [5] (2 mg/Kg synaptamide equivalent i.p. one minute after LPS) is ~ 50%. Also, the “LTP magnitude (EPSP amplitude, % of baseline)” value was 189.7±11.4% in [1] (setting [11]); 151.54±7.15% in [1] (setting [10]); 195.2±8% in [1] (10 mg/kg i.p., 1 h after cessation of SE then daily); 166.8±12.2% in [6] (bath application 100 nM); 164.2±20.5% in [6] (bath application 400 nM).

With `CC/C=C\C/C=C\C/C=C\C/C=C\C/C=C\C/C=C\CCC(=O)O` [DHA, docosahexaenoic acid, reference compound], the “LTP magnitude (EPSP amplitude, % of baseline)” value in series [1] (per os, dose equivalent to 100 mg/kg of Synaptamide phosphonate) is given as 129.5±10.2%.

As to `CC/C=C\C/C=C\C/C=C\C/C=C\C/C=C\C/C=C\CCC(=O)NCCOP(=O)(O)O` [synaptamide phosphate], the “hydrosolubility relative to synaptamide” value in series [7] was “more hydrosoluble than synaptamide”. Moreover, the “LTP magnitude (EPSP amplitude, % of baseline)” value is 168.9±7.1% in series [1] (setting [11]), 162.3±10.8% in series [1] (setting [10]) and 144.5±9.39% in [6] (bath application 100 nM).

In the case of `CCCCCCCCCC(=O)O.NCCO.O=[PH](O)O` [DECA-EA-Pn, decanoic acid ethanolamine phosphonate], the “LTP magnitude (EPSP amplitude, % of baseline)” value in series [1] (setting [10]) was determined as 130.3±7%. Besides, the “induction of IL-6 mRNA levels” value in series [2] is on record as “significantly reduced”.

Turning to `CCC=CCC=CCC=CCC=CCC=CCC=CCCC(=O)NCCP(=O)(O)OCC(N)C(O)C=CCCCCCCCCCCCCC` (stereo not shown) [SSLX2], the “LTP magnitude (EPSP amplitude, % of baseline)” value is 135.6±9.9% in series [1] (per os, dose equivalent to 10 mg/kg of Synaptamide phosphonate) and 172.9±6.5% in series [1] (per os, dose equivalent to 30 mg/kg of Synaptamide phosphonate).

Turning to `CCC=CCC=CCC=CCC=CCC=CCC=CCCC(=O)NC(COP(=O)(O)CCN)C(O)C=CCCCCCCCCCCCCC` (stereo not shown) [SSL-X1], the “distribution of SSL-X1 along the intestinal tract” value in series [8] is “able to reach the colon”. The “induction of MCP1, IL6 and COX-2 transcripts after SE” value in series [9] was “partially prevented”.
